Assay results: US6177438A, “Morphinan derivatives and pharmaceutical use thereof” (priority 1993, dated 2001)
Where a name gives a salt, the structure may show the parent alone.

Key:
[1] = tested on: cultured nerve cells (cerebral cortex); conditions: 10 mM glutamic acid, 24 hours
[2] = tested on: cultured nerve cells (cerebral cortex); assay: cells; conditions: Rattus norvegicus, Cerebral cortex neuron, 24 h, read-out: ED50 (protection against glutamic acid toxicity)
[3] = tested on: acetic acid-induced writhing in ddy mice; assay: animal or person; format: in vivo, 5 week old ddy mice; conditions: Mus musculus, sc, s.c. 15 minutes before acetic acid, read-out: ED50
Procedure: 5 week old ddy mice were used in this test. After intraperitoneal administration of 0.1 ml of 0.6% aqueous acetic acid per 10 g of body weight, the number of writhing reactions that occurred in 10 minutes starting 10 minutes after administration was evaluated for the indicator. The test drug was administered subcutaneously into the backs of the animals 15 minutes before administration of acetic acid.

[4] = Diuretic action (urine output for 5 hours after physiological saline loading in rats); format: in vivo, male Wistar rats; conditions: Rattus norvegicus, sc, 5 hours after saline 20 ml/kg p.o.; for ED (200% urine output): dose giving urine output of 200 (non-dosed group = 100); for ED (500% urine output): dose giving urine output of 500 (non-dosed group = 100)
Outline: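 Doses reported as ED200/ED500, i.e. those raising 5 h urine output to 200 or 500 versus undosed rats set at 100. Subcutaneous dosing preceded an oral 20 ml/kg saline load by 30 min; male Wistar rats, 7-8 weeks, deprived of water 1 h beforehand.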

[5] = tested on: extracted mouse vas deferens preparation; assay: Opioid activity test using an extracted mouse vas deferens preparation (suppression of electrically induced contractions); set-up: species or system male ddy mouse; conditions: electrical stimulus 0.1 Hz, 37° C.
Outline: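 Male ddY mouse vas deferens in Krebs-Henseleit at 37° C, 5% CO2/95% O2, field-stimulated at 0.1 Hz, 5.0 ms; isometric contractions recorded. After adding naloxone, NTI or norBNI, test compound was added cumulatively after ~20 min; Ke derived from the difference in agonist efficacies.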

[6] = biological target: T1, δ receptor (Mus musculus, UniProt P32300); set-up: species or system male ddy mouse; conditions: mouse vas deferens, δ, NTI added
T1 construct: The vas deferens extracted from the animal was suspended in a Magnus tube; from tissue; host or cells: mouse (male ddy) vas deferens

[7] = biological target: T2, κ receptor (Mus musculus, UniProt P33534); assay: Opioid activity test using an extracted mouse vas deferens preparation, Ke with norBNI; set-up: species or system male ddy mouse; conditions: for receptor selectivity of agonist (κ): in words; for Ke, norBNI: κ, norBNI added
T2 construct: from tissue; host or cells: mouse (male ddy) vas deferens
T2 sequence (P33534 whole entry): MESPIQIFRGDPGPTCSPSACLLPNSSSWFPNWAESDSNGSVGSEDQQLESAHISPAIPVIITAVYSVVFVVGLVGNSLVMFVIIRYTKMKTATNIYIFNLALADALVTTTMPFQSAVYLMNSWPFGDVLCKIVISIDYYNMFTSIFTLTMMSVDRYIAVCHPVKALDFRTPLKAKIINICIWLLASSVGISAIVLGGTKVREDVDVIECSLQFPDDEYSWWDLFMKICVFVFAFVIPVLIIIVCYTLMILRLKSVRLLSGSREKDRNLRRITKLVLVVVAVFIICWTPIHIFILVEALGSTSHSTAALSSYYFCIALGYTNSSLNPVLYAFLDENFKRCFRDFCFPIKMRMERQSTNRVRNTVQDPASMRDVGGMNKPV

T1 sequence (P32300 whole entry): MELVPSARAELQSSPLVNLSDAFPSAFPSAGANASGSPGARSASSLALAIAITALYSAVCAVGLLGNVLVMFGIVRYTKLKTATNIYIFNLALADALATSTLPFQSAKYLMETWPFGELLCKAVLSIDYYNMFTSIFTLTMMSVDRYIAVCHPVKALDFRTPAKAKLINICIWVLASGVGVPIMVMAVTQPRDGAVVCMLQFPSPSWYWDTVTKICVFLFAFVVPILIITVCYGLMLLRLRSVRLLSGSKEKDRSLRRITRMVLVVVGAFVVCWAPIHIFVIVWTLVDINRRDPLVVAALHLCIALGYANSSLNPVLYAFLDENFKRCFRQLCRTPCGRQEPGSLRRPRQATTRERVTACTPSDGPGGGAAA

## O=C(Cc1ccc(Cl)c(Cl)c1)N[C@H]1CC[C@@]2(O)[C@H]3Cc4ccc(O)c5c4[C@@]2(CCN3CC2CC2)[C@H]1O5 [Compound 52, 17-cyclopropylmethyl-4,5α-epoxy-3,14β-dihydroxy-6α-(3,4-dichlorophenylacetoamido)morphinan.cndot.hydrochloride]
[1]
  Protective action against cytotoxicity caused by glutamic acid (in words): clearly demonstrated action that protects nerve cells from cytotoxicity caused by glutamic acid
[2]
  EC50: 1710 nM

## CN(C(=O)Cc1ccccc1)[C@H]1CC[C@@]2(O)[C@H]3Cc4ccc(O)c5c4[C@@]2(CCN3CC2CC2)[C@H]1O5 [Compound 23, 17-cyclopropylmethyl-3,14β-dihydroxy-4,5α-epoxy-6α-(N-methylphenylacetamido)morphinan.cndot.hydrochloride]
[1]
  Protective action against cytotoxicity caused by glutamic acid (in words): clearly demonstrated action that protects nerve cells from cytotoxicity caused by glutamic acid
[3]
  ED50: 0.67 mg/kg
[2]
  EC50: 1610 nM

## CN(CCc1ccc(Cl)c(Cl)c1)[C@@H]1CC[C@@]2(O)[C@H]3Cc4ccc(O)c5c4[C@@]2(CCN3CC2CC2)[C@H]1O5 [Compound 136, 17-Cyclopropylmethyl-3,14β-dihydroxy-4,5α-epoxy-6β-[N-methyl-N-2-(3,4-dichlorophenyl)ethylamino]morphinan.cndot.1.9 hydrochloride]
[1]
  Protective action against cytotoxicity caused by glutamic acid (in words): clearly demonstrated action that protects nerve cells from cytotoxicity caused by glutamic acid
[2]
  EC50: 640 nM

## CN(C(=O)OCc1ccccc1)[C@@H]1CC[C@@]2(O)[C@H]3Cc4ccc(O)c5c4[C@@]2(CCN3CC2CC2)[C@H]1O5 [Compound 56, 17-cyclopropylmethyl-3,14β-dihydroxy-4,5α-epoxy-6β-(N-methylbenzyloxycarbamido)morphinan.cndot.hydrochloride]
[1]
  Protective action against cytotoxicity caused by glutamic acid (in words): clearly demonstrated action that protects nerve cells from cytotoxicity caused by glutamic acid
[3]
  ED50: 0.00802 mg/kg
[4]
  ED (200% urine output): 0.0028 mg/kg
  ED (500% urine output): 0.0518 mg/kg
[2]
  EC50: 5230 nM

## CN(C(=O)C1CCCCC1)[C@H]1CC[C@@]2(O)[C@H]3Cc4ccc(O)c5c4[C@@]2(CCN3CC2CC2)[C@H]1O5 [Compound 33, 17-cyclopropylmethyl-3,14β-dihydroxy-4,5α-epoxy-6α-(N-methylcyclohexylcarboxyamido)morphinan.cndot.hydrochloride]
[1]
  Protective action against cytotoxicity caused by glutamic acid (in words): clearly demonstrated action that protects nerve cells from cytotoxicity caused by glutamic acid
[3]
  ED50: 0.08 mg/kg
[2]
  EC50: 3530 nM

## CN(C(=O)c1ccccc1)[C@H]1CC[C@@]2(O)[C@H]3Cc4ccc(O)c5c4[C@@]2(CCN3CC2CC2)[C@H]1O5 [Compound 34, 17-cyclopropylmethyl-3,14β-dihydroxy-4,5α-epoxy-6α-(N-methylbenzamido)morphinan.cndot.hydrochloride]
[1]
  Protective action against cytotoxicity caused by glutamic acid (in words): clearly demonstrated action that protects nerve cells from cytotoxicity caused by glutamic acid
[3]
  ED50: 0.21 mg/kg
[2]
  EC50: 180 nM

## CN(C(=O)CCc1ccccc1)[C@@H]1CC[C@@]2(O)[C@H]3Cc4ccc(O)c5c4[C@@]2(CCN3CC2CC2)[C@H]1O5 [Compound 57, 17-cyclopropylmethyl-3,14β-dihydroxy-4,5α-epoxy-6β-(N-methyl-3-phenylpropionamido)morphinan.cndot.hydrochloride]
[1]
  Protective action against cytotoxicity caused by glutamic acid (in words): clearly demonstrated action that protects nerve cells from cytotoxicity caused by glutamic acid
[3]
  ED50: 0.04 mg/kg
[5]
  IC50: 0.0254 nM
[4]
  ED (200% urine output): 0.0424 mg/kg
  ED (500% urine output): 1.26 mg/kg
[2]
  EC50: 15300 nM
[6]
  Ke, NTI: 747 nM
[7]
  receptor selectivity of agonist (κ): selective agonists for κ receptors
  Ke, norBNI: 0.0124 nM

## C[C@H](C(=O)N(C)[C@H]1CC[C@@]2(O)[C@H]3Cc4ccc(O)c5c4[C@@]2(CCN3CC2CC2)[C@H]1O5)c1ccccc1 [Compound 32, 17-cyclopropylmethyl-4,5α-epoxy-3,14β-dihydroxy-6α-[(S)-N-methyl-2-phenylpropionamido]morphinan.cndot.tartrate]
[1]
  Protective action against cytotoxicity caused by glutamic acid (in words): clearly demonstrated action that protects nerve cells from cytotoxicity caused by glutamic acid
[3]
  ED50: 0.29 mg/kg
[2]
  EC50: 2140 nM

## CN(CCc1ccc(Cl)c(Cl)c1)[C@H]1CC[C@@]2(O)[C@H]3Cc4ccc(O)c5c4[C@@]2(CCN3CC2CC2)[C@H]1O5 [Compound 135, 17-Cyclopropylmethyl-3,14β-dihydroxy-4,5α-epoxy-6α-[N-methyl-N-2-(3,4-dichlorophenyl)ethylamino]morphinan.cndot.1.8 hydrochloride]
[1]
  Protective action against cytotoxicity caused by glutamic acid (in words): clearly demonstrated action that protects nerve cells from cytotoxicity caused by glutamic acid
[2]
  EC50: 290 nM

## CN(C(=O)COc1ccccc1)[C@@H]1CC[C@@]2(O)[C@H]3Cc4ccc(O)c5c4[C@@]2(CCN3CC2CC2)[C@H]1O5 [Compound 58, 17-cyclopropylmethyl-3,14β-dihydroxy-4,5α-epoxy-6β-(N-methylphenoxyacetamido)morphinan.cndot.tartrate]
[1]
  Protective action against cytotoxicity caused by glutamic acid (in words): clearly demonstrated action that protects nerve cells from cytotoxicity caused by glutamic acid
[3]
  ED50: 0.19 mg/kg
[2]
  EC50: 16700 nM

## CN(C(=O)Cc1cccc(C(F)(F)F)c1)[C@H]1CC[C@@]2(O)[C@H]3Cc4ccc(O)c5c4[C@@]2(CCN3CC2CC2)[C@H]1O5 [Compound 108, 17-cyclopropylmethyl-3,14β-dihydroxy-4,5α-epoxy-6α-(N-methyl-3-trifluoromethylphenylacetamido)morphinan.cndot.hydrochloride]
[1]
  Protective action against cytotoxicity caused by glutamic acid (in words): clearly demonstrated action that protects nerve cells from cytotoxicity caused by glutamic acid
[3]
  ED50: 0.0064 mg/kg
[4]
  ED (200% urine output): 0.021 mg/kg
  ED (500% urine output): 5.11 mg/kg
[2]
  EC50: 250 nM

## CN(C(=O)Cc1ccc(Cl)c(Cl)c1)[C@@H]1CC[C@@]2(O)[C@H]3Cc4ccc(O)c5c4[C@@]2(CCN3CC2CC2)[C@H]1O5 [Compound 53, 17-cyclopropylmethyl-4,5α-epoxy-3,14β-dihydroxy-6β-(N-methyl-3,4-dichlorophenylacetoamido)morphinan.cndot.hydrochloride]
[1]
  Protective action against cytotoxicity caused by glutamic acid (in words): clearly demonstrated action that protects nerve cells from cytotoxicity caused by glutamic acid
[3]
  ED50: 0.46 mg/kg
[5]
  IC50: 10.3 nM
[4]
  ED (200% urine output): 0.135 mg/kg
  ED (500% urine output): 0.658 mg/kg
[2]
  EC50: 2510 nM
[6]
  Ke, NTI: 1676 nM
[7]
  receptor selectivity of agonist (κ): selective agonists for κ receptors
  Ke, norBNI: 0.21 nM

## CN(C(=O)Cc1ccc2ccccc2c1)[C@@H]1CC[C@@]2(O)[C@H]3Cc4ccc(O)c5c4[C@@]2(CCN3CC2CC2)[C@H]1O5 [Compound 112, 17-cyclopropylmethyl-3,14β-dihydroxy-4,5α-epoxy-6β-(N-methyl-2-naphthylacetamido)morphinan.cndot.hydrochloride]
[1]
  Protective action against cytotoxicity caused by glutamic acid (in words): clearly demonstrated action that protects nerve cells from cytotoxicity caused by glutamic acid
[2]
  EC50: 4240 nM

## CN(C(=O)CCCc1ccccc1)[C@H]1CC[C@@]2(O)[C@H]3Cc4ccc(O)c5c4[C@@]2(CCN3CC2CC2)[C@H]1O5 [Compound 35, 17-cyclopropylmethyl-3,14β-dihydroxy-4,5α-epoxy-6α-(N-methyl-4-phenylbutyramido)morphinan.cndot.hydrochloride]
[1]
  Protective action against cytotoxicity caused by glutamic acid (in words): clearly demonstrated action that protects nerve cells from cytotoxicity caused by glutamic acid
[3]
  ED50: 0.026 mg/kg
[4]
  ED (200% urine output): 0.0245 mg/kg
  ED (500% urine output): 5.19 mg/kg
[2]
  EC50: 640 nM

## CN(C(=O)Cc1cccc(C(F)(F)F)c1)[C@@H]1CC[C@@]2(O)[C@H]3Cc4ccc(O)c5c4[C@@]2(CCN3CC2CC2)[C@H]1O5 [Compound 116, 17-cyclopropylmethyl-3,14β-dihydroxy-4,5α-epoxy-6β-(N-methyl-3-trifluoromethylphenylacetamido)morphinan.cndot.hydrochloride]
[1]
  Protective action against cytotoxicity caused by glutamic acid (in words): clearly demonstrated action that protects nerve cells from cytotoxicity caused by glutamic acid
[2]
  EC50: 2370 nM
